Assay results from ChEMBL document CHEMBL5113528 (J Med Chem, 2022).
pIC50, pKd: −log10 of the molar value.

Assays:
[1] = biological target: T1, N-terminal Xaa-Pro-Lys N-methyltransferase 1 (Homo sapiens, UniProt Q9BV86); test: Inhibition of full length His-NTMT1 (1 to 222 residues) (unknown origin) expressed in Escherichia coli BL21 (DE3) assessed as SAH production by Mtase-glo luminescence assay
T1 sequence (Q9BV86 whole entry): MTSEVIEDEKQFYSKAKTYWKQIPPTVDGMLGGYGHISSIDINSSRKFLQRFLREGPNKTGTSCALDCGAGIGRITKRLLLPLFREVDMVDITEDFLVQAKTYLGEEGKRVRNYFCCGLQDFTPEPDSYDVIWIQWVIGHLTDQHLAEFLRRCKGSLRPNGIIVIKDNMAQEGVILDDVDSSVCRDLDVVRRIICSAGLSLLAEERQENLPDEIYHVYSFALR

[2] = biological target: T1, N-terminal Xaa-Pro-Lys N-methyltransferase 1
Description: Binding affinity to NTMT1 (unknown origin) assessed as dissociation constant in presence of SAM by isothermal titration calorimetry analysis

[3] = biological target: T1, N-terminal Xaa-Pro-Lys N-methyltransferase 1; remark: listed apart in the source
Description: Binding affinity to NTMT1 (unknown origin)assessed as dissociation constant in absence of SAM by isothermal titration calorimetry analysis

[4] = biological target: T1, N-terminal Xaa-Pro-Lys N-methyltransferase 1; test: Inhibition of full length NTMT1 (1 to 222 residues) (unknown origin) expressed in Escherichia coli BL21 (DE3) using GPKRIA as substrate preincubated for 10 mins followed by substrate addition measured after 15 mins by microplate reader method

Row | SMILES | pIC50 [4] | further results
1 | C/N=c1\nc(-c2ccccc2)n(-c2ccccc2)s1 | – | pIC50 [1]: 6.34
2 | CC(C)(NC(=O)O[C@@H]1CN2CCC1CC2)c1csc(-c2ccc(F)cc2)n1 | – | pKd [2]: 7.49; pKd [3]: 6.80
3 | CC(C)(NC(=O)O[C@@H]1CN2CCC1CC2)c1csc(-c2ccc(CCC(=O)O)cc2)n1 | < 4.00 | –
4 | CC(C)(NC(=O)O[C@@H]1CN2CCC1CC2)c1csc(-c2ccccc2)n1 | 5.57 | –
5 | Cc1nc(C(C)(C)NC(=O)O[C@@H]2CN3CCC2CC3)cs1 | < 4.00 | –
6 | CC(C)(NC(=O)OC1CCCCC1)c1csc(-c2ccc(F)cc2)n1 | < 4.00 | –
7 | CC(C)(NC(=O)O[C@@H]1CN2CCC1CC2)c1csc(-c2ccc(Br)cc2)n1 | 5.82 | –
8 | CC(C)OC(=O)NC(C)(C)c1csc(-c2ccc(F)cc2)n1 | < 4.00 | –
9 | CC(C)(NC(=O)O[C@@H]1CN2CCC1CC2)c1csc(-c2ccc(/C=C/C(=O)O)cc2)n1 | < 4.00 | –
10 | Cc1ccc(-c2nc(C(C)(C)NC(=O)O[C@@H]3CN4CCC3CC4)cs2)cc1 | 5.77 | –
